Results: US6603046B1, “Bis-aromatic a,β-unsaturated ketones” (Lica Pharmaceuticals A/S, priority 1992, dated 2003)
Where two headings read alike, the source gives them in different places.

Legend:
L. major promastigotes = L. major promastigotes from 4-days cultures, 3H-thymidine uptake (Examples 5, 14); type: cell-based, Leishmania major; conditions: for inhibition at 1 µg/mL / inhibition at 5 µg/mL / inhibition at 10 µg/mL / inhibition at 20 µg/mL / inhibition at 0.5 µg/mL: Leishmania major; for inhibition at 1 µg/mL: 1 μg/ml; for inhibition at 5 µg/mL: 5 μg/ml; for inhibition at 20 µg/mL: 20 μg/ml; for inhibition at 0.5 µg/mL: 0.5 μg/ml
Procedure: Parasite cultures. The same parasite culture as described in Example 4. Promastigotes were harvested on day 4 of the culture and used for the parasiticidal assay.
Effect on promastigotes. […] Following incubation, […] of ^3H-thymidine was added to each well and further incubated for 18 hrs. Promastigotes were then harvested on filter paper by means of a cell harvester (Skatron, Lierbyen, Norway), extensively washed with distilled water and counted in a scintillation counter (Minaxi Ti-Carb 4000, United Technologies, Packard, USA).
L. major promastigotes. The L. major promastigotes were prepared as described in Example 4 and harvested after 4 days.

human lymphocytes = assay: Lymphocyte Proliferation Assay, 3H-thymidine incorporation (Example 13); conditions: for inhibition at 0.5 µg/mL / inhibition at 1 µg/mL / inhibition at 5 µg/mL / inhibition at 10 µg/mL: Homo sapiens, Lymphocyte
[1] = read-out: percentage inhibition of 3H-thymidine uptake (mean ± SEM), Table 5.1
[2] = read-out: percentage inhibition of 3H-thymidine uptake (mean ± SEM), Table 5.1, 10 μg/ml
[3] = Table 14.1, read-out: percentage inhibition of promastigotes (upper figure)
[4] = Table 14.1, 10 μg/ml, read-out: percentage inhibition of promastigotes (upper figure)
[5] = read-out: inhibition of lymphocytes (lower figure)

SMILES	inhibition at 1 µg/mL (L. major promastigotes; [1]) [%]	inhibition at 5 µg/mL (L. major promastigotes; [1]) [%]	inhibition at 10 µg/mL (L. major promastigotes; [2]) [%]	inhibition at 0.5 µg/mL (L. major promastigotes; [3]) [%]	inhibition at 1 µg/mL (L. major promastigotes; [3]) [%]	inhibition at 5 µg/mL (L. major promastigotes; [3]) [%]	inhibition at 10 µg/mL (L. major promastigotes; [4]) [%]	inhibition at 0.5 µg/mL (human lymphocytes; [5]) [%]	inhibition at 1 µg/mL (human lymphocytes; [5]) [%]	inhibition at 5 µg/mL (human lymphocytes; [5]) [%]	inhibition at 10 µg/mL (human lymphocytes; [5]) [%]	further results
O=C(/C=C/c1ccccc1)c1ccccc1 [chalcone, reference compound]												activity against Leishmania parasites in vitro (L. major promastigotes): very high activity; toxicity against human lymphocytes (human lymphocytes): extremely high toxicity
O=C(/C=C/c1ccccc1)c1ccc(O)cc1 [drawing 53]	35.9	70.8	82.8									inhibition at 20 µg/mL (L. major promastigotes; [1]): 91.9 ± 2.1%
O=C(/C=C/c1ccc(O)cc1)c1ccccc1 [drawing 54]	39.1	70.1	84.5									inhibition at 20 µg/mL (L. major promastigotes; [1]): 94.3 ± 1.6%
COc1ccc(/C=C/C(=O)c2ccc(O)cc2)c(OC)c1 [drawing 55]	27.3	61.8	91.9 ± 4.6									inhibition at 0.5 µg/mL (L. major promastigotes; [1]): 19.4%
C=CCOc1ccc(C(=O)/C=C/c2ccc(OC)cc2OC)cc1 [drawing 56]	17.5	64.5	84.3 ± 3.5									inhibition at 0.5 µg/mL (L. major promastigotes; [1]): 7.5%
COCOc1ccc(C(=O)/C=C/c2ccc(OC)cc2OC)cc1 [drawing 58]	18.1	56.3	65 ± 5.9									inhibition at 0.5 µg/mL (L. major promastigotes; [1]): 8.5%
COc1cc(/C=C/C(=O)c2ccc(O)cc2O)ccc1O [drawing 59]	14.3	66.7	83.3 ± 4.6									inhibition at 0.5 µg/mL (L. major promastigotes; [1]): 7.8%
O=C(/C=C/c1ccccc1)c1ccccc1 [drawing 60]				21.6	34.8	91.9	97.3	2	7.3	91	100	
O=C(/C=C/c1ccc(O)cc1)c1ccc(O)cc1 [drawing 63]				22.5 ± 10	26.6 ± 7.6	34.6 ± 10.5		0	0	96.3		inhibition at 10 µg/mL (L. major promastigotes; read-out: percentage inhibition of promastigotes (upper figure)): 53.1 ± 7.9%; inhibition at 10 µg/mL (human lymphocytes; read-out: inhibition of lymphocytes (lower figure), response to PHA, 10 μg/ml): 94.8%
COc1ccc(C(=O)/C=C/c2ccccc2)cc1 [drawing 66]				20.6	26.3	68.1	85.5	2	7.5	91	100	
COc1cccc(/C=C/C(=O)c2ccc(O)cc2)c1OC [drawing 69]				32	43	95.2 ± 4.7	97.1 ± 3.5	2	7.5	89.3	99.8	
COc1cc(/C=C/C(=O)c2ccc(O)cc2O)ccc1O [drawing 74]				7.8	14.3	56.7	83.3	2	6	9.5	38.3	
COCOc1ccc(C(=O)/C=C/c2ccc(OC)cc2OC)cc1 [drawing 90]				22.8 ± 9.7	27.6 ± 10.9	50.2 ± 13	65.4 ± 16.1	0	5.1	11.2	15.4	
COc1ccc(CCC(=O)c2ccc(O)cc2)c(OC)c1 [drawing 92]				8.5 ± 1.8	5.6 ± 5.4	22.5 ± 9.7	31.3 ± 16	0	0	3	1.5	
CC(C)=CCc1c(O)ccc(C(=O)/C=C/c2cc(O)c3c(c2)C=CC(C)(C)O3)c1O [drawing 97]							18					
CC(C)=CCc1cc(/C=C/C(=O)c2ccc(O)c(CC=C(C)C)c2O)ccc1O [drawing 98]					12	28	91					
